Results from patent publication US20240342292A1, “Compounds for the Degradation of EGFR Kinase” (BeiGene Switzerland GmbH, priority 2021, published 2024).

Experiments:
Del19/T790M/C797S EGFR = experiment: EGFR degradation HTRF assay in H1975-clone #28 (DTC) cells; format: cell-based; conditions: H1975 # 28 DTC (Del19/T790M/C797S), 16h treatment; for DC50: HTRF; for Dmax (%): maximum percentage of degradation
Summary of the method: (§1)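 EGFR levels quantified by HTRF on lysates after 16 h compound exposure (top 10 uM, 5-fold, 8 points) in single-cell H1975 clones expressing only exogenous mutant EGFR after sgRNA knockout of endogenous copies. DC50 derived by four-parameter logistic fitting of inhibition percentage.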

L858R/T790M/C797S EGFR = molecular target: T1, L858R/T790M/C797S EGFR (Homo sapiens, UniProt P00533, C797S/L858R/T790M); experiment: EGFR degradation HTRF assay in H1975-clone #25 (LTC) cells; format: cell-based; conditions: 16h treatment; for DC50: H1975 # 25-LTC (L858R/T790M/C797S), HTRF; for Dmax: NCI-H1975, H1975 # 25-LTC (L858R/T790M/C797S), maximum percentage of degradation
T1 construct: expressed in transfected cells; host or cells: H1975 clone #25 (lentiviral over-expression, endogenous EGFR knocked out by sgRNA)
T1 sequence (P00533 25-1210 T790M/C797S/L858R): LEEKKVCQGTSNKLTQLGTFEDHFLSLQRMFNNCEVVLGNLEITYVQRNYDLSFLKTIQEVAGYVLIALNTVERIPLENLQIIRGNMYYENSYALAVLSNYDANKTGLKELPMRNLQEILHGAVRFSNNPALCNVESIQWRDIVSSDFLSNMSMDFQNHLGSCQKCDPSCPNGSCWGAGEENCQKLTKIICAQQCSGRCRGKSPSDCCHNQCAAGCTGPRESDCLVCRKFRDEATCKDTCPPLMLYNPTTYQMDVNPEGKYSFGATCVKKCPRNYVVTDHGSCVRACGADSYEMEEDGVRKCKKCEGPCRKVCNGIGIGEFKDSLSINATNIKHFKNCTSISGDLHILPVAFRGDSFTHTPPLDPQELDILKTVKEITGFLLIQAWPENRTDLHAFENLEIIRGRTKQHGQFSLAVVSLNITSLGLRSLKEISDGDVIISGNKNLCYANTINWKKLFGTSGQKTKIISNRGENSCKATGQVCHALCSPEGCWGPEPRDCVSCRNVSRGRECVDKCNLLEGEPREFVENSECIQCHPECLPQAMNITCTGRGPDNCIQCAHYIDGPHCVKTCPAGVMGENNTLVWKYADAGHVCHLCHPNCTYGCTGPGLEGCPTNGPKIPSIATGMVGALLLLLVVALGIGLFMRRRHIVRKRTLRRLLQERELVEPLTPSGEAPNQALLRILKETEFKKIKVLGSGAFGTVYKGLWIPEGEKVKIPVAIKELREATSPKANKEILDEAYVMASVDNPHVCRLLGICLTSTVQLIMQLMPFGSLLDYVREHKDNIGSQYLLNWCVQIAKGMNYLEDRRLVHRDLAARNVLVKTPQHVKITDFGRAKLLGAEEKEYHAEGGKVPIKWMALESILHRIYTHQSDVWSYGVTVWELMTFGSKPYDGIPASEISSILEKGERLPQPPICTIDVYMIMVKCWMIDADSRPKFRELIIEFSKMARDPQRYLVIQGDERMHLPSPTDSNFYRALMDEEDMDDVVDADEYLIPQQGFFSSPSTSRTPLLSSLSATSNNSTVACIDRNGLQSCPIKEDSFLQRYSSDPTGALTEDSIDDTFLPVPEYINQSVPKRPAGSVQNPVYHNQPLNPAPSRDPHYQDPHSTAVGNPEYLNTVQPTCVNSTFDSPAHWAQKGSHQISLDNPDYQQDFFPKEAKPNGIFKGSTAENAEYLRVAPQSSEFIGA
Summary of the method: as §1

DC50 (Del19/T790M/C797S EGFR) [nM] | DC50 (L858R/T790M/C797S EGFR) [nM] | Dmax (L858R/T790M/C797S EGFR) [%] | SMILES | Dmax (%) (Del19/T790M/C797S EGFR)
2.17 | 0.705 | 87.9 | Cc1cc2cc(n1)-c1cnn(C)c1OCCC[C@@H](C)CN1/C(=N/C2=O)Nc2ccc(CN3CCN(CC4CN(c5cc(F)c([C@H]6CCC(=O)NC6=O)c(F)c5)C4)CC3)cc21 [Example 150, (R)-3-(2,6-difluoro-4-(3-((4-(((R,E)-1^1,2^6,7-trimethyl-3-oxo-5^2,5^1-dihydro-1^1H,5^1H-11-oxa-4-aza-5(2,1)-benzo[d]imidazola-2(2,4)-pyridina-(4,5)-pyrazolacycloundecaphane-5^6-yl)methyl)piperazin-1-yl)methyl)azetidin-1-yl)phenyl)piperidine-2,6-dione] | 79.66
0.994 | 0.998 | 79.4 | Cc1cc2cc(n1)-c1cnn(C)c1OCCC[C@H](C)CN1/C(=N/C2=O)Nc2c(C)cc(CN3CCN(C(=O)C4CN(c5cc(F)c([C@H]6CCC(=O)NC6=O)c(F)c5)C4)CC3)cc21 [Example 154, (R)-3-(2,6-difluoro-4-(3-(4-(((S,E)-11,26,54,7-tetramethyl-3-oxo-5^2,5^1-dihydro-1^1H,5^1H-11-oxa-4-aza-5(2,1)-benzo[d]imidazola-2(2,4)-pyridina-1(4,5)-pyrazolacycloundecaphane-5^6-yl)methyl)piperazine-1-carbonyl)azetidin-1-yl)phenyl)piperidine-2,6-dione] | 78.94
1.2 | 0.634 | 86.9 | Cc1cc2cc(n1)-c1cnn(C)c1OCCC[C@@H](C)CN1/C(=N/C2=O)Nc2ccc(OC3CCN(C(=O)C4CN(c5cc(F)c([C@H]6CCC(=O)NC6=O)c(F)c5)C4)CC3)cc21 [Example 156, (R)-3-(2,6-difluoro-4-(3-(4-(((R,E)-1^1,2^6,7-trimethyl-3-oxo-5^2,5^3-dihydro-1^1H,5^1H-11-oxa-4-aza-5(2,1)-benzo[d]imidazola-2(2,4)-pyridina-1(4,5)-pyrazolacycloundecaphane-5^6-yl)oxy)piperidine-1-carbonyl)azetidin-1-yl)phenyl)piperidine-2,6-dione] | 72.74
0.868 | 0.852 | 82.2 | Cc1cc2cc(n1)-c1cnn(C)c1OCCC[C@@H](C)CN1/C(=N/C2=O)Nc2ccc(C3CCN(C(=O)C4CN(c5cc(F)c([C@H]6CCC(=O)NC6=O)c(F)c5)C4)CC3)cc21 [Example 158, (R)-3-(2,6-difluoro-4-(3-(4-((R,E)-1^1,2^6,7-trimethyl-3-oxo-5^2,5-dihydro-1^1H,5^1H-11-oxa-4-aza-5(2, 1)-benzo[d]imidazola-2(2,4)-pyridina-1(4,5)-pyrazolacycloundecaphane-5^6-yl)piperidine-1-carbonyl)azetidin-1-yl)phenyl)piperidine-2,6-dione] | 72.14
1.77 | 1.48 | 79.9 | Cc1cc2cc(n1)-c1cnn(C)c1OCCC[C@@H](C)CN1/C(=N/C2=O)Nc2ccc(CC3CCN(C(=O)C4CN(c5cc(F)c([C@H]6CCC(=O)NC6=O)c(F)c5)C4)CC3)cc21 [Example 159, (R)-3-(2,6-difluoro-4-(3-(4-(((R,E)-1^1,2^6,7-trimethyl-3-oxo-5^2,5^3-dihydro-1^1H,5^1H-11-oxa-4-aza-5(2,1)-benzo[d]imidazola-2(2,4)-pyridina-1(4,5)-pyrazolacycloundecaphane-5^6-yl)methyl)piperidine-1-carbonyl)azetidin-1-yl)phenyl)piperidine-2,6-dione] | 79.77
0.557 | 0.598 | 79.1 | Cc1cc2cc(n1)-c1cnn(C)c1OCCC[C@@H](C)CN1/C(=N/C2=O)Nc2ccc(CN3CCN(C(=O)C4CCN(c5cc(F)c([C@H]6CCC(=O)NC6=O)c(F)c5)CC4)CC3)cc21 [Example 162, (R)-3-(2,6-difluoro-4-(4-(4-(((R,E)-1^1,2^6,7-trimethyl-3-oxo-5^2, 5^3-dihydro-1^1H,5^1H-11-oxa-4-aza-5(2,1)-benzo[d]imidazola-2(2,4)-pyridina-1(4,5)-pyrazolacycloundecaphane-5^6-yl)methyl)piperazine-1-carbonyl)piperidin-1-yl)phenyl)piperidine-2,6-dione] | 71.45
1.95 | 1.46 | 83.1 | Cc1cc2cc(n1)-c1cnn(C)c1OCCC[C@@H](C)CN1/C(=N/C2=O)Nc2ccc(CN3CC4CCC3CN4C(=O)[C@@H]3CCN(c4cc(F)c([C@H]5CCC(=O)NC5=O)c(F)c4)C3)cc21 (stereo partly drawn) [Example 164, (3R)-3-(2,6-difluoro-4-((3R)-3-(5-(((R,E)-1^1,2^6,7-trimethyl-3-oxo-5^2,5^3-dihydro-1^1H,5^1H-11-oxa-4-aza-5(2,1)-benzo[d]imidazola-2(2,4)-pyridina-1(4,5)-pyrazolacycloundecaphane-5^6-yl)methyl)-2,5-diazabicyclo[2.2.2]octane-2-carbonyl)pyrrolidin-1-yl)phenyl)piperidine-2,6-dione] | 73.21
2.95 | 3.1 | 79.9 | Cc1cc2cc(n1)-c1cnn(C3CC3)c1OCCC[C@@H](C)CN1/C(=N/C2=O)Nc2ccc(CN3CCN(C(=O)[C@H]4CN(c5cc(F)c([C@H]6CCC(=O)NC6=O)c(F)c5)CC4(C)C)CC3)cc21 [Example 165, (R)-3-(4-((R)-4-(4-(((R,E)-11-cyclopropyl-2^6,7-dimethyl-3-oxo-5^2,5^3-dihydro-1^1H,5^1H-11-oxa-4-aza-5(2,1)-benzo[d]imidazola-2(2,4)-pyridina-1(4,5)-pyrazolacycloundecaphane-5^6-)n-methyl)piperazine-1-carbonyl)-3,3-dimethylpyrrolidin-1-yl)-2,6-difluorophenyl)piperidine-2,6-dione] | 74.73
0.663 | 0.954 | 90.6 | Cc1cc2cc(n1)-c1cnn(C)c1OCCC[C@@H](C)CN1/C(=N/C2=O)Nc2ccc(N(C)C3CCN(C(=O)[C@@H]4CCN(c5cc(F)c([C@H]6CCC(=O)NC6=O)c(F)c5)C4)CC3)cc21 [Example 172, (R)-3-(2,6-difluoro-4-((R)-3-(4-(methyl((R,E)-1^1,2^6,7-trimethyl-3-oxo-5^2,5^3-dihydro-1^1H,5^1H-11-oxa-4-aza-5(2,1)-benzo[d]imidazola-2(2,4)-pyridina-1(4,5)-pyrazolacycloundecaphane-5^6-yl)amino)piperidine-1-carbonyl)pyrrolidin-1-yl)phenyl)piperidine-2,6-dione] | 75.08
0.752 | 1.04 | 87.1 | Cc1cc2cc(n1)-c1cnn(C)c1OCCC[C@@H](C)CN1/C(=N/C2=O)Nc2ccc(CN3C[C@@H]4C[C@H]3CN4C(=O)[C@H]3CN(c4cc(F)c([C@H]5CCC(=O)NC5=O)c(F)c4)CC3(C)C)cc21 [Example 185, (R)-3-(4-((R)-3,3-dimethyl-4-((1S,4S)-5-(((R,E)-1^1,2^6,7-trimethyl-3-oxo-5^2,5^3-dihydro-1^1H,5^1H-11-oxa-4-aza-5(2,1)-benzo[d]imidazola-2(2,4)-pyridina-1(4,5)-pyrazolacycloundecaphane-5^6-yl)methyl)-2,5-diazabicyclo[2.2.1]heptane-2-carbonyl)pyrrolidin-1-yl)-2,6-difluorophenyl)piperidine-2,6-dione] | 60.18
0.742 | 1.17 | 82.2 | Cc1cc2cc(n1)-c1cnn(C)c1OCCC[C@@H](C)CN1/C(=N/C2=O)Nc2ccc(CN3CCN(C(=O)[C@@H]4CCN(c5cc(F)c([C@H]6CCC(=O)NC6=O)c(F)c5)C4(C)C)C[C@@H]3C)cc21 [Example 190, (R)-3-(4-((R)-2,2-dimethyl-3-((S)-3-methyl-4-(((R,E)-1^1,2^6,7-trimethyl-3-oxo-5^2,5^3-dihydro-1^1H,5^1H -11-oxa-4-aza-5(2,1)-benzo[d]imidazola-2(2,4)-pyridina-(4,5)-pyrazolacycloundecaphane-5^6-yl)methyl)piperazine-1-carbonyl)pyrrolidin-1-yl)-2,6-difluorophenyl)piperidine-2,6-dione] | 64.16

SMILES | DC50 (Del19/T790M/C797S EGFR) [nM] | DC50 (L858R/T790M/C797S EGFR) [nM] | Dmax (L858R/T790M/C797S EGFR) [%] | Dmax (%) (Del19/T790M/C797S EGFR)
Cc1cc2cc(n1)-c1cnn(C)c1OCCC[C@@H](C)CN1/C(=N/C2=O)Nc2ccc(CN3CC4CC(C3)N4C(=O)[C@@H]3CCN(c4cc(F)c([C@H]5CCC(=O)NC5=O)c(F)c4)C3)cc21 [Example 163, (3R)-3-(2,6-difluoro-4-((3R)-3-(3-(((R,E)-1^1,2^6,7-trimethyl-3-oxo-5^2,5^3-dihydro-1^1H,5^1H-11-oxa-4-aza-5(2,1)-benzo[d]imidazola-2(2,4)-pyridina-1(4,5)-pyrazolacycloundecaphane-5^6-yl)methyl)-3,6-diazabicyclo[3.1.1]heptane-6-carbonyl)pyrrolidin-1-yl)phenyl)piperidine-2,6-dione] | 1.76 | 1.14 | 83.1 | 66.41
Cc1cc2cc(n1)-c1cnn(C)c1OCCC[C@@H](C)CN1/C(=N/C2=O)Nc2ccc(CN3C4CCC3CN(C(=O)[C@@H]3CCN(c5cc(F)c([C@H]6CCC(=O)NC6=O)c(F)c5)C3)C4)cc21 [Example 187, (3R)-3-(2,6-difluoro-4-((3R)-3-(8-(((R,E)-1^1,2,7-trimethyl-3-oxo-5^2,5^3-dihydro-1^1H,5^1H-11-oxa-4-aza-5(2,1)-benzo[d]imidazola-2(2,4)-pyridina-1(4,5)-pyrazolacycloundecaphane-5^6-yl)methyl)-3,8-diazabicyclo[3.2.1]octane-3-carbonyl)pyrrolidin-1-yl)phenyl)piperidine-2,6-dione] | 1.8 | 1.01 | 86.1 | 80.62
